Results published in patent US11369584B2, “Andrographolide derivatives and method of using the same for treatment or prevention of fibrosis” (Zhengzhou University, priority 2017, dated 2022).

Legend:
[1] = test system: human proximal tubular epithelial cells HK-2; assay: TGF-β1-induced conversion of HK-2 cells to mesenchymal cells (morphological observation); type: cell-based; details: TGF-β1 5 ng/mL, 48 h, test concentrations 0.08-[…]
Protocol: Human proximal tubular epithelial cells HK-2 (provided by the China Center for Type Culture Collection) were used to study the in vitro anti-renal fibrosis effect of the compounds of the disclosure in comparison with andrographolide (AD). HK-2 cells were cultured in DMEM-F12 medium containing 10% (V/V) fetal bovine serum, 100 μg/mL streptomycin, and 100 IU/mL penicillin respectively, and then incubated in an incubator at 5% CO2 and 37° C., humidified atmosphere. HK-2 cells in logarithmic growth phase were digested with 0.25% (w/v) trypsin and 0.02% EDTA (W/V), and diluted into 5.0×10^6/mL cell suspension with DMEM-F12 medium containing 10% (v/v) fetal bovine serum. After each 96-well plate was filled with 200 μL cell suspension, the plates were placed in an incubator for 24 h in order to generate a single layer of cells. The original medium was discarded, and the cells were washed twice with PBS, and the medium without serum was added. After 24 h of re-synchronized, 200 μL of DMEM-F12 medium containing different concentrations of the test compound and the stimulating factor TGF-β1 (5 ng/mL) was added. Each treatment was repeated in 4 wells and control group was set up. After 48 h of incubation, the cells were photographed under a microscope.

[2] = test system: SD rats with liver fibrosis induced by CCl4; assay: CCl4-induced liver fibrosis in SD rats; type: in vivo; details: ELISA
Protocol: SD rats were fed ad libitum for 3 days, and then randomly divided into normal group and model group. Subcutaneous injection of 40% CCl4 of soybean oil to the rats of model group for the first time. Following an initial dose of 4 mL/kg, each subsequent dose was 2 mL/kg, 2 times every week. The corresponding volumes of soy oil were injected subcutaneously to the normal group. After 4 weeks of modeling, except for the normal group, other rats were weighed individually and then randomly divided into eight rats per group. The dosages of andrographolide, oxymatrine, silibinin and the compound A of the disclosure were both 20 mg/kg, and the doses of other compounds were the same molar mass as compound A, and the model group and the normal group were given an equal amount of 0.5% CMC-Na. During the 5th and 6th weeks of the experiment, modeling and administration were carried out simultaneously, furthermore, the modeling was stopped at the 7th and 8th weeks, while the administered continued to carry out. Drugs were administrated by gavage on an empty stomach in the morning every day, and were given daily for 10 days followed by 1-day break. The bedding of the rats should be replaced at the first 8 hours of the last gavage, strictly fasting with nothing but water. After 1 h of administration, an anesthetic of 3% pentobarbital sodium (2 mL/kg) was intraperitoneally injected. […] Image-Pro Plus software performed semi-quantitative analysis of fibrosis histology on the photographs of Masson stained sections. […] The expression of α-SMA (a marker of the degree of HSC activation) in liver tissue was evaluated by immunohistochemistry, and the positive expression was quantified using Image-Pro Plus, the results were shown in FIGS. 6 and 7. Data were processed and analyzed using SPSS 17.0 statistical software. Data were expressed as mean±standard deviation (X±S); There were significant differences between groups when P<0.05. The levels of LN, C-I, PC-III and C-IV in the serum of the animals were determined by ELISA using the compound H of the disclosure as a representative. Data were processed and analyzed using SPSS 17.0 statistical software. Data were expressed as mean±standard deviation (X±S); There were significant differences between groups when P<0.05. The level of IL-6 and TNF-α in the serum of the animal was determined by ELISA using the compound H of the disclosure as a representative, the results were shown in FIGS. 20 and 21. Data were processed and analyzed using SPSS 17.0 statistical software. Data were expressed as mean±standard deviation (X±S); There were significant differences between groups when P<0.05. The level of SOD and MDA in the liver tissue of the animal was determined by the compound H of the disclosure, the results were shown in FIGS. 22 and 23. […]

Compound: C=C1CC[C@@H]2[C@](C)(CO)[C@H](O)CC[C@@]2(C)[C@@H]1C/C=C1/C(=O)OC[C@H]1O [AD, andrographolide]
- Inhibitory effect ([1]; Table 1A): Medium
- Optimal effective dose range ([1]; Table 1A): 0.31 to 1.25 µM
- Inhibitory effect ([1]; Table 1B): Medium
- Optimal effective dose range ([1]; Table 1B): 0.31 to 1.25 µM
- content of C-I in liver tissue [2]: significantly reduced
- content of C-IV in the serum [2]: significantly reduced

Compound: O=C1CCC[C@@H]2[C@H]3CCC[N+]4([O-])CCC[C@@H](CN12)[C@@H]34 (some centres unmarked) [Oxymatrine, oxymatrine]
- content of C-I in liver tissue [2]: significantly reduced
- content of C-IV in the serum [2]: significantly reduced
